Reference: patent US20240199624A1, “COMPOUNDS, COMPOSITIONS, AND METHODS” (CHDI Foundation, Inc., priority 2022, published 2024)

Assays:
MSH3 (human MutSbeta) = target: T1, MSH3 (human MutSbeta) (Homo sapiens, UniProt P20585); experiment: ATP binding and cross-linking assay (MSH3 subunit); settings: [32P]-ATP UV cross-linking to MSH3 subunit of MutSbeta; read-out: cross-link assay IC50 MSH3
T1 construct: Msh3(1-1137), Gene ID J04810.1
Procedure: ATP binding and cross-linking assay: Enzyme human MutSbeta (Msh2(1-934), Gene ID NP_000242.1, Msh3(1-1137), Gene ID J04810.1) was adjusted to 0.2 μM and, in experiments in the presence of 22 bp biotin-labeled DNA containing a GT-mismatch (purchased from Curia Global, TOP 5′-[…]-3′; BOT 3′-AGTAGCTAGGC - - - CGAAGTCTACC-5′-Biotin), pre-incubated with DNA at equimolar concentration for indicated time and temperature. All reagents were kept on ice. Enzyme was then incubated on ice for the indicated time with 5 nM γ-[^32P]-ATP (Hartmann Analytic, FP-301) or α-[^32P]-ATP (Perkin Elmer, NEG003H250UCSBF4 or Hartmann Analytic, FP-207) and addition of cold ATP (10 μM) or ADP (0.3 μM). The total volume was 20 μL and the samples were handled in Eppendorf reaction tubes. The assay buffer was 25 mM HEPES pH=7.5, 150 mM KCl, 5 mM MgCl2, 5 mM GSH, 0.01% Tween-20. All steps with radioactive ATP were conducted behind appropriate shielding. The samples were then placed on dry ice until they were frozen solid. […] The screen was analyzed in the imager (GE Healthcare, Fluorescent Image Analyzer, Typhoon FLA 7000, #5622514B), and the image was analyzed with imageJ software.

human MutSbeta [1] = target: T2, human MutSbeta (Homo sapiens, UniProt P20585+P43246); experiment: ADP Glo assay 2.1; assay type: biochemical; settings: 10 μM ATP, 7 nM enzyme; buffer with 5 mM GSH, 0.2% Ovalbumin
T2 construct: Msh2(1-934), Gene ID NP_000242.1; Msh3(1-1137), Gene ID J04810.1
Procedure: (§1) ADP Glo assay 2.1: Enzyme human MutSbeta (Msh2(1-934), Gene ID NP_000242.1, Msh3(1-1137), Gene ID J04810.1) with 22 bp biotin-labeled DNA containing a GT-mismatch (purchased from Curia Global, TOP 5′-[…]-3′; BOT 3′-AGTAGCTAGGC - - - CGAAGTCTACC-5′-Biotin) was pre-incubated in assay buffer (25 mM HEPES pH=7.5, 150 mM KCl, 5 mM MgCl2, 5 mM GSH, 0.1% Pluronic F-127, 0.2% Ovalbumin) to allow formation of the enzyme-DNA complex. Plates with spotted compounds in serial dilutions in DMSO (80 nL) were filled with ATP (2 μL, 10 μM final concentration) followed by an incubation of 30 min at RT. Then, enzyme was added (2 μL, 7 nM final concentration) and the reaction was allowed to proceed for 60 min at 37° C. After the ATPase reaction, the commercially available “ADP-Glo Reagent” was added (incubate 40 min at RT) to deplete remaining ATP via the activity of […]. Subsequently, the commercially available “Kinase Detection Reagent” converted ADP to ATP via the activity of PEP and Pyruvate kinase. The ATP was then converted into light by Ultra-Glo Luciferase. The obtained luminescence was proportional to the ADP concentration generated during the initial ATPase reaction. The luminescence signal was measured with an Envision reader, raw data were analyzed towards controls (full reaction=0% inhibition; no reaction in absence of enzyme=100% inhibition) and IC50 curves were analyzed with the inhouse software Aplus.

human MutSbeta [2] = target: T2, human MutSbeta; experiment: ADP Glo assay 1.1; assay type: biochemical; settings: SPA buffer, no Ovalbumin; enzyme added to compounds before ATP; read-out: ADP Gol 1.1 assay IC50
Procedure: as §1
ADP Glo assay 1.1: The ADP Glo 2.1 assay was adapted to enable assessment of a more direct interaction of the compound with the enzyme: (1) the SPA buffer was applied (25 mM HEPES pH=7.5, 150 mM KCl, 2 mM MgCl2, 2 mM GSH, 0.01% Tween-20) which contained no decoy Ovalbumin protein. (2) The order of reagent addition was changed, and enzyme was now added directly to the spotted compounds before addition of ATP.

T2 sequence (P43246 whole entry): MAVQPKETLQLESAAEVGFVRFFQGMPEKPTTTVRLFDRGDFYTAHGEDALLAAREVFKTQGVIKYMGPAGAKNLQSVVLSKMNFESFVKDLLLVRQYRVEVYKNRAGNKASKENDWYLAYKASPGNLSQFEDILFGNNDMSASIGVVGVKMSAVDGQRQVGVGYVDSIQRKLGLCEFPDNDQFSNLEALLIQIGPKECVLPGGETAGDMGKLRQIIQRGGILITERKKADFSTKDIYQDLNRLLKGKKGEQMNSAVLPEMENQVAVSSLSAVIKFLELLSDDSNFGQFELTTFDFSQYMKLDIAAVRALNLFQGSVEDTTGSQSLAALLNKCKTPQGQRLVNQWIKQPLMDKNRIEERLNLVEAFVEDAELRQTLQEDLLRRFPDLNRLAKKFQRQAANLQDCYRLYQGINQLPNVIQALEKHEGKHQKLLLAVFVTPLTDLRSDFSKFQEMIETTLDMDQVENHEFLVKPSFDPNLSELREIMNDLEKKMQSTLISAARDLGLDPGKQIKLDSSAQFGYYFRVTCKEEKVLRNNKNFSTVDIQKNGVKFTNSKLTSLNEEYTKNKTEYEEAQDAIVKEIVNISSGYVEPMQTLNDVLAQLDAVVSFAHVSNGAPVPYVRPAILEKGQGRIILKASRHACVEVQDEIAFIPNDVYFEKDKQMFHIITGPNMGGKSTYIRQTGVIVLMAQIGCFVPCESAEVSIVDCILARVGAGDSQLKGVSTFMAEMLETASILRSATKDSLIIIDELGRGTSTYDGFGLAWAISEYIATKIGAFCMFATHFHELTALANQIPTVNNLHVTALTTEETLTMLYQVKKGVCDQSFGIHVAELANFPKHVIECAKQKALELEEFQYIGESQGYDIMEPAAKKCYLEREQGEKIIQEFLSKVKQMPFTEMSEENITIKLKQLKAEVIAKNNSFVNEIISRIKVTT
T2 sequence (P20585 whole entry): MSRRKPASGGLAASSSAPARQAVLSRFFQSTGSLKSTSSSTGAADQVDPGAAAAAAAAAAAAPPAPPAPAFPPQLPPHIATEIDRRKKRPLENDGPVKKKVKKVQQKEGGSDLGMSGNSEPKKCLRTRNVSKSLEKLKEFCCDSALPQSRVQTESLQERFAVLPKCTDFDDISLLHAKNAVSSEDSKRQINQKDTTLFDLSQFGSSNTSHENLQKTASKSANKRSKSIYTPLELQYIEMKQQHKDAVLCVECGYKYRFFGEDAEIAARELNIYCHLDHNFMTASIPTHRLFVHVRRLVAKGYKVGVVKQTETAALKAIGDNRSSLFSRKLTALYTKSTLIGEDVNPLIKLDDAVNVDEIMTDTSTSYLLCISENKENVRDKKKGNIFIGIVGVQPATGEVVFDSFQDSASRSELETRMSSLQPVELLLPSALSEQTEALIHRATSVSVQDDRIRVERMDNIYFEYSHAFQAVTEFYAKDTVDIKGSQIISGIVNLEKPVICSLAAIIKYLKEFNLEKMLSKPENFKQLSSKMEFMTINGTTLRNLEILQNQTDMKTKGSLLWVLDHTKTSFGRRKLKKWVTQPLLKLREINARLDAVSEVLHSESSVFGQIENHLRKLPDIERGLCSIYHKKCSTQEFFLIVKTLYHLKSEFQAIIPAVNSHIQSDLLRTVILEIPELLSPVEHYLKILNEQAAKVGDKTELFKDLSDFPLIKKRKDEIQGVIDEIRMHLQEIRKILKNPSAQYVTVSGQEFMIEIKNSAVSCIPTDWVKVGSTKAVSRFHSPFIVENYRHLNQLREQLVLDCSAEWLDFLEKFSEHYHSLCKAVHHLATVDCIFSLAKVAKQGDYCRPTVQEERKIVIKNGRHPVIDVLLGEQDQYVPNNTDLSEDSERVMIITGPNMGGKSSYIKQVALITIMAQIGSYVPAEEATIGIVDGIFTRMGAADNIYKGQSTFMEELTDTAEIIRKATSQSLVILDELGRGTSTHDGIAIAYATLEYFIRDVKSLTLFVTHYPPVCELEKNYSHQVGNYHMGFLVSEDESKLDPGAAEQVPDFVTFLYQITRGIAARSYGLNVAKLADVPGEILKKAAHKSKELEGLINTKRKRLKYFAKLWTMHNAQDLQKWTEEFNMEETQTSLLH
T1 sequence (P20585 whole entry): as above
T1 sequence (P43246 whole entry partner): as the sequence (P43246 whole entry) above

IC50 (MSH3 (human MutSbeta)) | IC50 (human MutSbeta [1]) | IC50 (human MutSbeta [2]) | Structure (SMILES)
5 µM | 67.3 µM | 54.8 µM | Cc1ccc(Nc2nc(N3CCN(C)CC3)nc3nccnc23)cc1C [Compound 2, N-(3,4-dimethylphenyl)-2-(4-methylpiperazin-1-yl)pteridin-4-amine]
9 µM | 152 µM | 64.3 µM | CCN1CCN(c2nc(Nc3ccc(Cl)cc3)c3nccnc3n2)CC1 [Compound 4, N-(4-Chlorophenyl)-2-(4-ethylpiperazin-1-yl)pteridin-4-amine]
